target: T1, c-Met kinase (recombinant c-Met) (Homo sapiens, UniProt P08581); experiment: In vitro kinase assay I (homogeneous time-resolved fluorescence tyrosine kinase assay); type: biochemical
T1 construct: 0.27 nM recombinant c-Met
How it was run: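 Biotinylated peptide (0.5 μM) phosphorylated by 0.2 nM recombinant c-Met with 50 μM MgATP, 60 min at room temperature, pH 7.4, 5% DMSO. EDTA stop; HTRF read with Eu-anti-phosphotyrosine antibody and streptavidin-APC. IC50 from 4-parameter logistic fit.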

T1 sequence (P08581 25-1390): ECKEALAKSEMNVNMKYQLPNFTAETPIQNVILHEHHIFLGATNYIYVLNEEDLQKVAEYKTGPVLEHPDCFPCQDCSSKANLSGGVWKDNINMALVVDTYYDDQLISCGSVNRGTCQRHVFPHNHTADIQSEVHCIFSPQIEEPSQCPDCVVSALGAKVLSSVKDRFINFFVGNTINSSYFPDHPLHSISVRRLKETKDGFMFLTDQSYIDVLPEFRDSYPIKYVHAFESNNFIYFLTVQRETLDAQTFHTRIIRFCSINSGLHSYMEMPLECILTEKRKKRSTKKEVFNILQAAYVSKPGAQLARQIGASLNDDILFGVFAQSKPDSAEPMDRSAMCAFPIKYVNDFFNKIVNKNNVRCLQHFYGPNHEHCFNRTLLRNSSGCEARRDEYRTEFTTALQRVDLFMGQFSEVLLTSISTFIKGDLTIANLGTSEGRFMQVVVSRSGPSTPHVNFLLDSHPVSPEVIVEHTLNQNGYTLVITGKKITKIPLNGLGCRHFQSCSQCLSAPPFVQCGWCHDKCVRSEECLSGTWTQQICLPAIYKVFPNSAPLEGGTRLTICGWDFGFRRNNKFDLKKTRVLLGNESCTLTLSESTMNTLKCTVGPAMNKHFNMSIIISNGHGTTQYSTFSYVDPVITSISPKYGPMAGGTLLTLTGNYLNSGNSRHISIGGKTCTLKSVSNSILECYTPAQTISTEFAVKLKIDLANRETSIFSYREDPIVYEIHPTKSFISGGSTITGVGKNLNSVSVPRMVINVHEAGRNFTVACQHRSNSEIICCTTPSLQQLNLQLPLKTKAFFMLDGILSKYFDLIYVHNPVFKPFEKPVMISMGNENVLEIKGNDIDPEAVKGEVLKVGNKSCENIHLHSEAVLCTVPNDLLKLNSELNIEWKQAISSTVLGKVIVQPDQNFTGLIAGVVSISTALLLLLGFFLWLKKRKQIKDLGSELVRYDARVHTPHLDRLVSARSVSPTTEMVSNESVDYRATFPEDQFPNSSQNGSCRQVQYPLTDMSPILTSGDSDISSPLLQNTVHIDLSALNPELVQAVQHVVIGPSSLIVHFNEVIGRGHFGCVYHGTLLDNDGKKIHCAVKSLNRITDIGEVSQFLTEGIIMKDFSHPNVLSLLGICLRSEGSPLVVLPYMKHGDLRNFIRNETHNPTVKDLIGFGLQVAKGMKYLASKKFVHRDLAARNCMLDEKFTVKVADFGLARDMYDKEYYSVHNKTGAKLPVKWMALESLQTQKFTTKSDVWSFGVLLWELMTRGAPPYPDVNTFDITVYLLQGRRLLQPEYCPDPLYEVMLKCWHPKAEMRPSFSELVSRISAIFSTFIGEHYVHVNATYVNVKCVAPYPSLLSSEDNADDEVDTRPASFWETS

Row | IC50 [nM] | Compound
1 | < 100 | O=c1ccn(-c2ccc(F)c(F)c2)nc1Cc1cccc(-c2ncc(OCC3CCOC3)cn2)c1 (racemic) [Example 328, rac-1-(3,4-difluorophenyl)-3-{3-[5-(tetrahydrofuran-3-ylmethoxy)pyrimidin-2-yl]benzyl}pyridazin-4(1H)-one]
2 | < 100 | Cn1cc(-n2ccc(=O)c(Cc3cccc(-c4ncc(OCc5ccncc5)cn4)c3)n2)cn1 [Example 353, 1-(1-Methyl-1H-pyrazol-4-yl)-3-{3-[5(pyridin-4-ylmethoxy)pyrimidin-2-yl]benzyl}pyridazin-4(1H)-one]
3 | < 100 | Cn1cc(-n2ccc(=O)c(Cc3cccc(-c4ncc([C@]5(F)CCNC[C@@H]5O)cn4)c3)n2)cn1 (racemic) [Example 749, rac-3-({3-[5-(trans-4-Fluoro-3-hydroxypiperidin-4-yl)pyrimidin-2-yl]benzyl}-1-(1-methyl-1H-pyrazol-4-yl)pyridazin-4(1H)-one]
4 | < 100 | CCOc1cnc(-c2cccc(C(C)c3nn(-c4cnn(C)c4)ccc3=O)c2)nc1 (single isomer, unassigned) [Example 202, 3-{(1R or S)-1-[3-(5-ethoxypyrimidin-2-yl)phenyl]ethyl}-1-(1-methyl-1H-pyrazol-4-yl)pyridazin-4(1H)-one]
5 | < 100 | Cn1cc(-n2ccc(=O)c(Cc3cccc(-c4ncc(OCC5(CO)COC5)cn4)c3)n2)cn1 [Example 268, 3-[3-(5-{[3-(hydroxymethyl)oxetan-3-yl]methoxy}pyrimidin-2-yl)benzyl]-1-(1-methyl-1H-pyrazol-4-yl)pyridazin-4(1H)-one]
6 | < 100 | CCn1cc(-n2ccc(=O)c(Cc3cccc(-c4ncc(OCC5(F)CCNCC5)cn4)c3)n2)cn1 [Example 335, 1-(1-ethyl-1H-pyrazol-4-yl)-3-(3-{5-[(4-fluoropiperidin-4-yl)methoxy]pyrimidin-2-yl}benzyl)pyridazin-4(1H)-one]
7 | < 100 | CCCCOC(=O)Nc1cccc(Cc2nn(-c3cnn(C)c3)ccc2=O)c1 [Example 500, Butyl (3-{[1-(1-methyl-1H-pyrazol-4-yl)-4-oxo-1,4-dihydropyridazin-3-yl]methyl}phenyl)carbamate]
8 | < 100 | CC(C)(O)COc1cnc(-c2cccc(Cc3nn(-c4cccc(C#N)c4)ccc3=O)c2)nc1 [Example 361, 3-[3-{3-[5-(2-hydroxy-2-methylpropoxy)pyrimidin-2-yl]benzyl}-4-oxopyridazin-1(4H)-yl]benzonitrile]
9 | < 100 | Cn1cc(-n2ccc(=O)c(Cc3cccc(-c4ncc(Cc5ccccc5)cn4)c3)n2)cn1 [Example 396]
10 | 100 to 1000 | CCOC(=O)Nc1cccc(Cc2nn(-c3cccc(OC)c3)ccc2=O)c1 [Example 649, Ethyl(3-{[1-(3-methoxyphenyl)-4-oxo-1,4-dihydropyridazin-3-yl]methyl}phenyl)carbamate]
11 | < 100 | CC(Oc1cnc(-c2cccc(Cc3nn(-c4cnn(C)c4)ccc3=O)c2)nc1)C(C)(C)O (racemic) [Example 366, rac-3-{3-[5-(2-hydroxy-1,2-dimethylpropoxy)pyrimidin-2-yl]benzyl}-1-(1-methyl-1H-pyrazol-4-yl)pyridazin-4(1H)-one]
12 | < 100 | CC(C)COC(=O)Nc1cccc(Cc2nn(-c3cnn(CCCC(=O)NC4COC4)c3)ccc2=O)c1 [Example 701, 2-methylpropyl {3-[(1-{1-[4-(oxetan-3-ylamino)-4-oxobutyl]-1H-pyrazol-4-yl}-4-oxo-1,4-dihydropyridazin-3-yl)methyl]phenyl} carbamate]
13 | < 100 | CCOC(=O)Nc1cccc(Cc2nn(-c3cnn(C(C)C)c3)ccc2=O)c1 [Example 103, ethyl [3-({1-[1-(1-methylethyl)-1H-pyrazol-4-yl]-4-oxo-1,4-dihydropyridazin-3-yl}methyl)phenyl]carbamate]
14 | < 100 | CCn1cc(-n2ccc(=O)c(Cc3cccc(-c4ncc(OCCOC)cn4)c3)n2)cn1 [Example 151, 1-(1-ethyl-1H-pyrazol-4-yl)-3-{3-[5-(2-methoxyethoxy)pyrimidin-2-yl]benzyl}pyridazin-4(1H)-one]
15 | < 100 | COCCCOc1cnc(-c2cccc(Cc3nn(-c4cc(F)c(F)c(F)c4)ccc3=O)c2)nc1 [Example 324, 3-{3-[5-(3-methoxypropoxy)pyrimidin-2-yl]benzyl}-1-(3,4,5-trifluorophenyl)pyridazin-4(1H)-one]
16 | 100 to 1000 | CCCOC(=O)Nc1cccc(Cc2nn(-c3ccn(C)n3)ccc2=O)c1 [Example 27, propyl (3-{[1-(1-methyl-1H-pyrazol-3-yl)-4-oxo-1,4-dihydropyridazin-3-yl]methyl}phenyl)carbamate]
17 | < 100 | COCCOc1cnc(-c2cccc(Cc3nn(-c4ccc(Cl)c(F)c4)ccc3=O)c2)nc1 [Example 153, 1-(4-chloro-3-fluorophenyl)-3-{3-[5-(2-methoxyethoxy)pyrimidin-2-yl]benzyl}pyridazin-4(1H)-one]

Row | IC50 [nM] | Compound
18 | < 100 | CC(c1cccc(-c2ncc(OCC(C)(C)O)cn2)c1)c1nn(-c2ccc(F)c(F)c2)ccc1=O (single isomer, unassigned) [Example 250, 1-(3,4-difluorophenyl)-3-[(1R or S)-1-{3-[5-(2-hydroxy-2-methylpropoxy)pyrimidin-2-yl]phenyl}ethyl]pyridazin-4(1H)-one]
19 | < 100 | O=C(Nc1cccc(Cc2nn(-c3cnn(CC(F)(F)F)c3)ccc2=O)c1)OCCN1CCOCC1 [Example 116, 2-morpholin-4-ylethyl [3-({4-oxo-1-[1-(2,2,2-trifluoroethyl)-1H-pyrazol-4-yl]-1,4-dihydropyridazin-3-yl}methyl)phenyl]carbamate]
20 | < 100 | Cn1cc(-n2ccc(=O)c(Cc3cccc(-c4ncc(N5CCN(C(=O)OC(C)(C)C)CC5)cn4)c3)n2)cn1 [Example 471, tert-butyl 4-[2-(3-{[1-(1-methyl-1H-pyrazol-4-yl)-4-oxo-1,4-dihydro-pyridazin-3-yl]methyl}phenyl)pyrimidin-5-yl]piperazine-1-carboxylate]
21 | < 100 | COc1cnc(-c2cccc(Cc3nn(-c4cc(F)c(F)c(F)c4)ccc3=O)c2)nc1 [Example 9, 3-[3-(5-methoxypyrimidin-2-yl)benzyl]-1-(3,4,5-trifluorophenyl)pyridazin-4(1H)-one]
22 | < 100 | Cn1cc(-n2ccc(=O)c(Cc3cccc(-c4ncc(NCC5CCOC5)cn4)c3)n2)cn1 (racemic) [Example 455, rac-1-(1-methyl-1H-pyrazol-4-yl)-3-(3-{5-[(tetrahydro-furan-3-ylmethyl)amino]pyrimidin-2-yl}benzyl)pyridazin-4(1H)-one]
23 | < 100 | COCCOc1cnc(-c2cccc(Cc3nn(-c4cc(F)cc(C#N)c4)ccc3=O)c2)nc1 [Example 134, 3-fluoro-5-[3-{3-[5-(2-methoxyethoxy)pyrimidin-2-yl]benzyl}-4-oxopyridazin-1(4H)-yl]benzonitrile]
24 | < 100 | CCn1cc(-n2ccc(=O)c(Cc3cccc(-c4ncc(OCC5CCN(C(=O)OC(C)(C)C)CC5)cn4)c3)n2)cn1 [Example 288, tert-butyl 4-({[2-(3-{[1-(1-ethyl-1H-pyrazol-4-yl)-4-oxo-1,4-dihydropyridazin-3-yl]methyl}phenyl)pyrimidin-5-yl]oxy}methyl)piperidine-1-carboxylate]
25 | < 100 | CC(C)COC(=O)Nc1cccc(Cc2nn(-c3cnn(C)c3)ccc2=O)c1 [Example 53, 2-methylpropyl (3-{[1-(1-methyl-1H-pyrazol-4-yl)-4-oxo-1,4-dihydropyridazin-3-yl]methyl}phenyl)carbamate]
26 | < 100 | CCCCNC(=O)Nc1cccc(Cc2nn(-c3cnn(C)c3)ccc2=O)c1 [Example 494, 1-butyl-3-(3-{[1-(1-methyl-1H-pyrazol-4-yl)-4-oxo-1,4-dihydropyridazin-3-yl]methyl}phenyl)urea]
27 | 100 to 1000 | CCc1cnc(-c2cccc(C(C)c3nn(-c4ccc(F)c(F)c4)ccc3=O)c2)nc1 (single isomer, unassigned) [Example 230, 1-(3,4-difluorophenyl)-3-{(1S or R)-1-[3-(5-ethylpyrimidin-2-yl)phenyl]ethyl}pyridazin-4(1H)-one]
28 | < 100 | CC(C)COC(=O)Nc1cccc(Cc2nn(-c3ccc(-c4cn[nH]c4)cc3)ccc2=O)c1 [Example 731, 2-methylpropyl [3-({4-oxo-1-[4-(1H-pyrazol-4-yl)phenyl]-1,4-dihydropyridazin-3-yl}methyl)phenyl] carbamate]
29 | < 100 | O=C(Nc1cccc(Cc2nn(-c3cc(F)cc(F)c3)ccc2=O)c1)OCCN1CCCC1=O [Example 592, 2-(2-oxopyrrolidin-1-yl)ethyl (3-{[1-(3,5-difluorophenyl)-4-oxo-1,4-dihydropyridazin-3-yl]methyl}phenyl)carbamate]
30 | < 100 | Cn1cc(-n2ccc(=O)c(Cc3cccc(-c4ncc(N5CCCC5)cn4)c3)n2)cn1 [Example 470, 1-(1-methyl-1H-pyrazol-4-yl)-3-[3-(5-pyrrolidin-1-ylpyrimidin-2-yl)benzyl]pyridazin-4(1H)-one]
31 | < 100 | Cn1cc(-n2ccc(=O)c(Cc3cccc(NC(=O)OCC(C)(C)C)c3)n2)cn1 [Example 501, 2,2-dimethylpropyl (3-{[1-(1-methyl-1H-pyrazol-4-yl)-4-oxo-1,4-dihydropyridazin-3-yl]methyl}phenyl)carbamate]
32 | < 100 | COCCNc1cnc(-c2cccc(Cc3nn(-c4cnn(C)c4)ccc3=O)c2)nc1 [Example 453, 3-(3-{5-[(2-methoxyethyl)amino]pyrimidin-2-yl}benzyl)-1-(1-methyl-1H-pyrazol-4-yl)pyridazin-4(1H)-one]
33 | < 100 | C[C@H](Oc1cnc(-c2cccc(Cc3nn(-c4cnn(C)c4)ccc3=O)c2)nc1)[C@@H](C)O (single isomer, unassigned) [Example 377]
34 | < 100 | CCn1cc(-n2ccc(=O)c(C(C)c3cccc(-c4ncc(OCc5noc(C)n5)cn4)c3)n2)cn1 (single isomer, unassigned) [Example 302, 1-(1-ethyl-1H-pyrazol-4-yl)-3-[(1R or S)-1-(3-{5-[(5-methyl-1,2,4-oxadiazol-3-yl)methoxy]pyrimidin-2-yl}phenyl)ethyl]pyridazin-4(1H)-one]

From patent publication US20120264735A1 (priority 2009, published 2012)
